Laboratory results: publication PMC9715946, “Bioenhancing effects of piperine and curcumin on triterpenoid pharmacokinetics and neurodegenerative metabolomes from Centella asiatica extract in beagle dogs” (Scientific Reports, 2022)
Each block holds one molecule with its values, some of them ahead of it.

Columns and labels:
[1] = Pharmacokinetic study: plasma triterpenoids by LCMS, non-compartmental analysis; design: species or system beagle dogs; details: dog, in vivo; for Tmax: 20 mg/kg
Source text: The proposed animal experiment was approved by the Institutional Animal Care and Use Committee of the Chulalongkorn University Laboratory Animal Centre (CULAC), Chulalongkorn University, Bangkok, Thailand (Protocol number 2073029, Approval date: […] The dogs were fed with a normal dog diet (Beauty Pro, Nippon Pet Food Co. Ltd.) once a day and water ad libitum. Two groups of four dogs were randomly used with a 2-week washout period. […] After receiving the test substances, the dogs were transferred to a metabolic cage for 48 h for the collection of urine and faeces. All animal procedures were performed in accordance with the ethical principles, regulations, and guidelines for the use of animals (National Research Council of Thailand, 2015). This study was conducted in compliance with the ARRIVE guidelines. Four experimental groups received the oral test compound once daily for seven consecutive days, as follows: ([…] 20 […] 20 mg/kg + piperine 20 mg/kg; ([…] 20 mg/kg + curcumin 20 mg/kg; and (iv) […] 20 mg/kg + piperine 20 mg/kg + curcumin 20 mg/kg. The test substance powders received from the suppliers were packed into gelatine capsule, and the dogs were orally administered two to four capsules in the morning, according to the number of test substances required in the experimental plan. Blood samples (2-3 mL) were withdrawn from the cephalic or saphenous vein using an IV catheter and placed in heparinised tubes. […] The pre-dose and 24 h post-dose blood chemistry parameters were determined by the Small Animal Hospital, Faculty of Veterinary Science, Chulalongkorn University for all dogs, in order to monitor the health status of the dogs. […] All biological samples were kept at - 80 °C until required for analysis. Where the concentration of the samples exceeded the linear calibration curve, blank matrices were used to dilute the sample before protein precipitation. Methanol was used to extract the major triterpenoids from the biological samples for LCMS analysis. In brief, 50 μL of the biological sample was added to 200 μL methanol containing glycyrrhizin and glycyrrhetinic acid as internal standards. The mixture was then centrifuged at 12,000g for 10 min at 4 °C to collect the supernatant, and 10 μL of the supernatant was injected into the LCMS system to measure the concentration of the targeted analytes. […] A Synergi Fusion-RP C18 column (Phenomenex Inc.) was selected as the stationary phase and maintained at 40 °C in the column oven. […] The lower limit of quantification (LLOQ) of each of the compounds in this study ranged from 1.00 to 10.00 μg/L, according to the compound. After oral administration, pharmacokinetic parameters were determined by PK solution software version 2.0 (Submit Research Services, USA.) using non-compartmental analysis. The maximum plasma concentration (Cmax) and time to reach maximum plasma concentration (Tmax) were calculated directly from the concentration-time curves. The area under the curve from time 0-24 h (AUC0-24) was determined by the trapezoidal method and extrapolated to time infinity by the equation AUC0-inf = AUC0-24 + (Clast/kel), where Clast is the last measurable plasma concentration and kel is the elimination rate constant. The rate of […] was equal to - 2.303 × slope. The mean residence time (MRT) was calculated as AUMC0-inf/AUC0-inf, where AUMC0-inf is the area under the first moment curve. The volume of distribution (Vd) was equivalent to dose/C0, where C0 is the concentration of drug measured in plasma at time zero. The total clearance (CL) was equal to dose/AUC0-inf, and the elimination half-life was determined by 0.693/kel. […] The difference in blood chemistry parameters pre-dose and post-dose was compared using Student's t test. SPSS version 22.0 (IBM Corp.) was used to determine statistically significant differences between the experimental groups. […]

[2] = piperine in combination, self-emulsifying drug delivery systems; cited from earlier work
[3] = in combination with 100 mg/kg of curcumin; cited from earlier work
[4] = design: method as in PMID 19934593; details: pre-treatment with curcumin 60 mg/kg; cited from earlier work

Increase of systemic exposure (Cmax and AUC) by Centell-S + piperine compared to Centell-S alone ([1]; male, beagle): 1.5 to 3.0 fold
Accumulation ratio ([1]; male, beagle, 7 days): 1.05–1.44
Tmax ([1]; male, beagle, po, Time to reach maximum plasma concentration): 2 to 4 h
Tmax ([1]; male, beagle, po, Tmax): 2 h
Molecule: C[C@H]1[C@H](C)CC[C@]2(C(=O)O)CC[C@]3(C)C(=CC[C@@H]4[C@@]5(C)C[C@@H](O)[C@H](O)[C@@](C)(CO)[C@@H]5CC[C@]43C)[C@H]12 [Asiatic acid, asiatic acid]

Molecule: C=C(C)[C@@H]1CCC(C)=C[C@H]1c1c(O)cc(CCCCC)cc1O [cannabidiol]
Improvement of oral bioavailability compared to the control group [2]: approximately 2.5 fold

Molecule: CC(=O)O[C@@]12CO[C@@H]1C[C@H](O)[C@@]1(C)C(=O)[C@H](O)C3=C(C)[C@@H](OC(=O)[C@H](O)[C@@H](NC(=O)OC(C)(C)C)c4ccccc4)C[C@@](O)([C@@H](OC(=O)c4ccccc4)[C@H]21)C3(C)C [docetaxel]
Increase of bioavailability compared to the control group [3]: approximately eight-fold

Molecule: CCn1cc(C(=O)O)c(=O)c2cc(F)c(N3CCNCC3)cc21 [norfloxacin]
Increase of AUC compared with the control group [4]: approximately two-fold

Increase of systemic exposure (Cmax and AUC) by Centell-S + piperine compared to Centell-S alone [1]: 1.5 to 3.0 fold
Time to reach maximum plasma concentration [1]: 2 to 4 h
Time to reach maximum plasma concentration ([1]; po): 1 to 2 h
Molecule: madecassoside
